Data taken from patent US20260295053A1, “COMPOUNDS FOR DEGRADATION AND INHIBITION OF KRAS (G12D) PROTEIN” (Shenzhen Ionova Life Science Co., Ltd., priority 2023, published 2026).

Target: T1, KRAS (G12D) (Homo sapiens, UniProt P01116, G12D)
T1 construct: in-cell western with KRAS G12D antibody after 24 h
Experiment: KRAS (G12D) cellular degradation assay in AsPC-1 cells
Format: cell-based
Settings: 24 hours, antibody fluorescence (Odyssey CLX), DC50 half-maximal degradation concentration
Protocol: ASPC-1 and PK-59 cellular assays ASPC-1 (ATCC cat. CRL-1682) and PK-59 (Nanjing Cobioer, Cat. No. CBP61184) were used in KRAS cellular degradation, pERK inhibition and proliferation assays. The two cell lines were maintained following vendor's instructions. For monitoring KRAS (G12D) cellular degradation and pERK biomarker inhibition, cells were seeded into a 96-well plate with 22,000 and 16,000 cells/well for assays in ASPC-1 and PK-59, respectively. Cells were incubated at 37° C. with 5% CO2 and cell density was monitored until ^~90% confluency was reached. Compounds were serially diluted at a 1:3 ratio and dispensed into each well at final concentrations ranging from […] to 1.5 nM. After incubation for 24 hours, the culture media were removed and the cells were subjected to fixation, permeabilization and blocking (Intercept blocking buffer, Li-cor). For KRAS (G12D) degradation, the cells were treated with primary antibody (KRAS G12D antibody, Cell Signaling Technologies, Cat. No. CST14429) and for β-actin (β-actin mAb, Beyotime, Cat. No. AF-5001), and followed by secondary antibodies, Anti-rabbit IgG (H+L) (DyLight™ 800 4×PEG Conjugate) or IRDye® 680RD Goat anti-Mouse IgG. For pERK inhibition assay, cells were treated with primary antibodies for pERK (Phospho-p44/42 MAPK (Erk1/2) (Thr202/Tyr204) (D13.14.4E) XP® Rabbit mAb, Cell Signaling Technologies, Cat. No. CST-4370) and β-actin (β-actin mAb, Beyotime, Cat. No. AF-5001), and followed by secondary antibodies, Anti-rabbit IgG (H+L) (DyLight™ 800 4×PEG Conjugate) or IRDye® 680RD Goat anti-Mouse IgG. Fluorescence signals were read on Odyssey CLX instrument. For cell proliferation assays, cells were seeded into a 96-well plate at 3,500 and 800 cells/well for assays in ASPC-1 and PK-59, respectively. Cells were incubated at 37° C. with 5% CO2 for overnight. Compounds were serially diluted at a 1:3 ratio and dispensed into each well at final concentrations ranging from […] to 1.5 nM. After incubation for 6 days, cell viability reagent (CellTiter Glo, Promega, Cat. No. G7573) was added to each well and luminescence was recorded on Molecular Devices Spectramax iD3 instrument. IC50, half-maximal inhibitory concentration for pERK inhibition or cell proliferation, and DC50, half-maximal degradation concentration in KRAS (G12D) cellular degradation were determined by fitting the corresponding dose response curves using GraphPad Prism software.
Wherein “A” means the value <10 nM, “B” means 10 nM<the value <100 nM, “C” means 100 nM<the value <1000 nM, and “D” means the value >1000 nM, in which, the value means the value of DC50 or IC50. NT means not tested.

T1 sequence (P01116 1-188 isoform P01116-2 G12D): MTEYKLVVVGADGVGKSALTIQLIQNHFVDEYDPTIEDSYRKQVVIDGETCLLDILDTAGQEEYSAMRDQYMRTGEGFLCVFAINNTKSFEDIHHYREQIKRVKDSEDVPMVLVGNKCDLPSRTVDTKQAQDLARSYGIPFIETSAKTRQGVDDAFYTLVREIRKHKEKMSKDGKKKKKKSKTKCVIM

Row | DC50 [nM] | Compound
1 | 10 to 100 | CCn1nccc1-c1ccc([C@@H](NC(=O)[C@@H]2C[C@@H](O)CN2C(=O)[C@H](C(C)C)n2cc(-c3ccc(COc4c(-c5c(C)c(F)c(F)c6[nH]ncc56)c(C5CC5)cc5c(N(C)[C@H]6CCNC6)nc(OC[C@H](C)OC)nc45)cc3)nn2)[C@H](C)O)cc1 [Example 146, (2S,4R)-1-((2S)-2-(4-(4-(((6-cyclopropyl-7-(6,7-difluoro-5-methyl-1H-indazol-4-yl)-2-((S)-2-methoxypropoxy)-4-(methyl((S)-pyrrolidin-3-yl)amino)quinazolin-8-yl)oxy)methyl)phenyl)-1H-1,2,3-triazol-1-yl)-3-methylbutanoyl)-N-((1R,2S)-1-(4-(1-ethyl-1H-pyrazol-5-yl)phenyl)-2-hydroxypropyl)-4-hydroxypyrrolidine-2-carboxamide]
2 | < 10 | CO[C@@H](C)COc1nc(N2CCCNCC2)c2cc(C3CC3)c(-c3c(C)c(F)cc4[nH]ncc34)c(OCc3ccc(-c4cn([C@H](C(=O)N5C[C@H](O)C[C@H]5C(=O)N[C@@H](CO)c5ccc(-c6scnc6C)c6c5CC6)C(C)C)nn4)cc3)c2n1 [Example 219, (2S,4R)-1-((2S)-2-(4-(4-(((6-cyclopropyl-4-(1,4-diazepan-1-yl)-7-(6-fluoro-5-methyl-1H-indazol-4-yl)-2-((S)-2-methoxypropoxy)quinazolin-8-yl)oxy)methyl)phenyl)-1H-1,2,3-triazol-1-yl)-3-methylbutanoyl)-4-hydroxy-N—((R)-2-hydroxy-1-(5-(4-methylthiazol-5-yl)bicyclo[4.2.0]octa-1(6),2,4-trien-2-yl)ethyl)pyrrolidine-2-carboxamide]
3 | 10 to 100 | CCn1nccc1-c1ccc([C@H](CO)NC(=O)[C@@H]2C[C@@H](O)CN2C(=O)[C@H](C(C)C)n2cc(-c3ccc(COc4c(-c5c(C)c(F)cc6[nH]ncc56)c(C5CC5)cc5c(N6C[C@@H]7C[C@H]6CN7)nc(N6CCC(COC)C6)nc45)cc3)nn2)cc1 (stereo partly drawn) [Example 125, (2S,4R)-1-((2S)-2-(4-(4-(((4-((1S,4S)-2,5-diazabicyclo[2.2.1]heptan-2-yl)-6-cyclopropyl-7-(6-fluoro-5-methyl-1H-indazol-4-yl)-2-(3-(methoxymethyl)pyrrolidin-1-yl)quinazolin-8-yl)oxy)methyl)phenyl)-1H-1,2,3-triazol-1-yl)-3-methylbutanoyl)-N—((R)-1-(4-(1-ethyl-1H-pyrazol-5-yl)phenyl)-2-hydroxyethyl)-4-hydroxypyrrolidine-2-carboxamide]
4 | < 10 | CCn1nccc1-c1ccc([C@H](CO)NC(=O)[C@@H]2C[C@@H](O)CN2C(=O)[C@H](C(C)C)n2cc(-c3ccc(COc4c(-c5c(C)c(F)cc6[nH]ncc56)c(C5CC5)cc5c(N(C)C[C@@H]6CCNC6)nc(OC[C@H](C)OC)nc45)cc3)nn2)cc1 [Example 216, (2S,4R)-1-((2S)-2-(4-(4-(((6-cyclopropyl-7-(6-fluoro-5-methyl-1H-indazol-4-yl)-2-((S)-2-methoxypropoxy)-4-(methyl(((R)-pyrrolidin-3-yl)methyl)amino)quinazolin-8-yl)oxy)methyl)phenyl)-1H-1,2,3-triazol-1-yl)-3-methylbutanoyl)-N—((R)-1-(4-(1-ethyl-1H-pyrazol-5-yl)phenyl)-2-hydroxyethyl)-4-hydroxypyrrolidine-2-carboxamide]
5 | < 10 | CO[C@@H]1CC[C@@H](Oc2nc(N3C[C@@H]4C[C@H]3CN4)c3cc(C4CC4)c(-c4c(C)c(F)cc5[nH]ncc45)c(OCc4ccc(-c5cn([C@H](C(=O)N6C[C@H](O)C[C@H]6C(=O)N[C@H](c6ccc(-c7scnc7C)cc6)[C@H](C)O)C(C)C)nn5)cc4)c3n2)C1 [Example 212]
6 | < 10 | CO[C@@H](C)COc1nc(N(C)[C@H]2CCNC2)c2cc(C3CC3)c(-c3c(C)c(F)c(F)c4[nH]ncc34)c(OCc3ccc(-c4cn([C@H](C(=O)N5C[C@H](O)C[C@H]5C(=O)N[C@H](c5ccc(-c6scnc6C)cc5)C(C)O)C(C)C)nn4)cc3)c2n1 (stereo in doubt) [Example 145, (2S,4R)-1-((2S)-2-(4-(4-(((6-cyclopropyl-7-(6,7-difluoro-5-methyl-1H-indazol-4-yl)-2-((S)-2-methoxypropoxy)-4-(methyl((S)-pyrrolidin-3-yl)amino)quinazolin-8-yl)oxy)methyl)phenyl)-1H-1,2,3-triazol-1-yl)-3-methylbutanoyl)-4-hydroxy-N-((1R,2R)-2-hydroxy-1-(4-(4-methylthiazol-5-yl)phenyl)propyl)pyrrolidine-2-carboxamide]
7 | 10 to 100 | CO[C@@H](C)COc1nc(N2C[C@@H]3C[C@H]2CN3)c2cc(C3CC3)c(-c3c(C)c(F)cc4[nH]ncc34)c(OCc3ccc(-c4cn([C@H](C(=O)N5C[C@H](O)C[C@H]5C(=O)N[C@H](C#Cc5cccc6sc(C)nc56)CO)C(C)C)nn4)cc3)c2n1 [Example 117, (2S,4R)-1-((2S)-2-(4-(4-(((4-((1S,4S)-2,5-diazabicyclo[2.2.1]heptan-2-yl)-6-cyclopropyl-7-(6-fluoro-5-methyl-1H-indazol-4-yl)-2-((S)-2-methoxypropoxy)quinazolin-8-yl)oxy)methyl)phenyl)-1H-1,2,3-triazol-1-yl)-3-methylbutanoyl)-4-hydroxy-N—((R)-1-hydroxy-4-(2-methylbenzo[d]thiazol-4-yl)but-3-yn-2-yl)pyrrolidine-2-carboxamide]
8 | < 10 | CCn1nccc1-c1ccc([C@H](CO)NC(=O)[C@@H]2C[C@@H](O)CN2C(=O)[C@H](C(C)C)n2cc(-c3ccc(COc4c(-c5c(C)c(F)cc6[nH]ncc56)c(C5CC5)cc5c(N6C[C@@H]7C[C@H]6CN7)nc(N6CCC(OC)CC6)nc45)cc3)nn2)cc1 [Example 124, (2S,4R)-1-((2S)-2-(4-(4-(((4-((1S,4S)-2,5-diazabicyclo[2.2.1]heptan-2-yl)-6-cyclopropyl-7-(6-fluoro-5-methyl-1H-indazol-4-yl)-2-(4-methoxypiperidin-1-yl)quinazolin-8-yl)oxy)methyl)phenyl)-1H-1,2,3-triazol-1-yl)-3-methylbutanoyl)-N—((R)-1-(4-(1-ethyl-1H-pyrazol-5-yl)phenyl)-2-hydroxyethyl)-4-hydroxypyrrolidine-2-carboxamide]
9 | 10 to 100 | CO[C@@H](C)COc1nc(N2C[C@@H]3C[C@H]2CN3)c2cc(C3CC3)c(-c3c(C)c(F)cc4[nH]ncc34)c(OCc3ccc(-c4cn([C@H](C(=O)N5C[C@H](O)C[C@H]5C(=O)N[C@H](C#Cc5ccccc5)CO)C(C)C)nn4)cc3)c2n1 [Example 123, (2S,4R)-1-((2S)-2-(4-(4-(((4-((1S,4S)-2,5-diazabicyclo[2.2.1]heptan-2-yl)-6-cyclopropyl-7-(6-fluoro-5-methyl-1H-indazol-4-yl)-2-((S)-2-methoxypropoxy)quinazolin-8-yl)oxy)methyl)phenyl)-1H-1,2,3-triazol-1-yl)-3-methylbutanoyl)-4-hydroxy-N—((R)-1-hydroxy-4-phenylbut-3-yn-2-yl)pyrrolidine-2-carboxamide]

Row | Compound | DC50 [nM]
10 | CCn1nccc1-c1ccc([C@@H](NC(=O)[C@@H]2C[C@@H](O)CN2C(=O)[C@H](C(C)C)n2cc(-c3ccc(COc4c(-c5c(C)c(F)cc6[nH]ncc56)c(C5CC5)cc5c(N6C[C@@H]7C[C@H]6CN7)nc(O[C@H]6C[C@H](OC)C6)nc45)cc3)nn2)[C@H](C)O)nc1 [Example 200, (2S,4R)-1-((2S)-2-(4-(4-(((4-((1S,4S)-2,5-diazabicyclo[2.2.1]heptan-2-yl)-6-cyclopropyl-7-(6-fluoro-5-methyl-1H-indazol-4-yl)-2-((1r,3S)-3-methoxycyclobutoxy)quinazolin-8-yl)oxy)methyl)phenyl)-1H-1,2,3-triazol-1-yl)-3-methylbutanoyl)-N-((1R,2S)-1-(5-(1-ethyl-1H-pyrazol-5-yl)pyridin-2-yl)-2-hydroxypropyl)-4-hydroxypyrrolidine-2-carboxamide] | < 10
